The source of these data is patent US20230132667A1, “DRUG-LIKE MOLECULES AND METHODS FOR THE THERAPEUTIC TARGETING OF VIRAL RNA STRUCTURES” (UNIVERSITY OF WASHINGTON, priority 2020, published 2023).

Non-standard residues stand in square brackets, D forms with d. Agb = N=C(N)NCC[C@H](N)C(=O)O; Dab = NCC[C@H](N)C(=O)O

The test system of assay [1] is Tat-dependent reactivation. Particulars: cited from earlier work.
The test system of assay [2] is HIV TAR. The assay is described as follows: Target-detected NMR (TOCSY, 1D imino spectra; stage 3). In kind it is binding, HIV-1. The conditions noted are these: chemical shift changes, TOCSY / 1D 1H imino spectra. The procedure:
Stage 3. The third stage in the screening cascade involves monitoring changes in the NMR spectra of the RNA target to identity where on the target the compound binds and examine the structural characteristics of the interaction. This step is conducted in the same […] buffer used for screening, prepared either in 95% H2O/5% D2O (water buffer) or 99.99% D2O (D2O buffer) to monitor different classes of proton resonances (FIGS. 10A and 10B). Uniform labeling of bases with ^13C and ^15N can also be performed, but this is relatively expensive.
Target detect NMR assays to measure RNA-ligand interactions. Transcribed RNA sequences (at natural isotopic abundance, along with ^15N/^13C enriched or selectively labeled ^2H samples) are snap-cooled in 250-500 μL NMR buffer (50 mM d9 bis-Tris pH 6.5, 50 mM NaCl) by heating to 95° C. for 4 min then placed at −20° C. until frozen. All ligand stocks were dissolved in 10-20 mM H2O, D2O or DMSO depending on ligand solubility. […] Ligand interactions are detected by changes in chemical shift through a series of NMR experiments, including but not limited to 1D ^1H and 2D ^1H-^1H TOCSY, ^1H-^1H NOESY, ^1H-^1H EXSY, ^15N-^1H HSQC, and ^13C-^1H HSQC experiments, which are used to map the binding site of the ligand on the RNA. […]

A further assay has as its system pre-miR-21. Nature of the assay: Single point ligand-detected NMR relaxation assay in low salt buffer (stage 1). Type of assay: binding. The conditions noted are these: 100 μM small molecule in low salt buffer, 10 μM RNA. The source says:
(§1) For initial screening and hit identification, a relaxation edited ligand-detect method is used to detect binding under low salt conditions. These initial conditions are chosen to facilitate the discovery of even low affinity compounds with favorable chemical characteristics. Binding compounds are identified through changes in peak height when comparing spectra for RNA-free and RNA-bound ligand (FIG. 8). The change in peak height is proportional to the increase in ligand line width, compared to the free small molecule, which occurs upon binding to the larger biomolecule. This NMR method is agnostic to biomolecular target, as it only depends on the longer rotational correlation time (Tc) of the small molecule bound in a complex with a much larger biomolecular target, which has a much […] correlation time; other NMR methods (e.g., STD) can be used as well.
(§2) Stage 1. […] The free ligand linewidths of compounds dissolved at concentration of 100 μM were quantified and compared to the ligand linewidths observed after addition of 10 μM RNA target. […]
(§3) Small molecule hit identification and tiered approach to ligand-detected NMR screening. In order to identify small molecules that bind to RNA and quantify the strength of the interaction, a tiered approach to NMR screening involving both ligand- and target-detected NMR experiments was used. […]

Assay [3] has as its system HIV TAR. Described as above. Particulars: 100 μM small molecule in low salt buffer, 10 μM RNA. In kind it is binding, HIV-1.
Text: as §1, §2, §3

Assay [4] concerns the target HIV TAR. Nature of the assay: 2-aminopurine (2AP) fluorescence binding assay. Also on record: species or system HIV-1. Particulars: 2AP-labeled HIV TAR, excess tRNA; single binding event; read-out: affinity by fitting Equation 1.
Protocol: The fourth stage in the screening cascade quantifies binding using an orthogonal biophysical method.
To quantify binding of the compounds to HIV TAR, a 2-amino purine method was used. In this assay, U25 on HIV TAR was substituted with 2-aminopurine and binding assays were conducted on a Horiba Tau fluorometer.
2-AP binding assays. Fluorescence intensity binding assays were conducted using a method based on the incorporation of a single fluorescent base analogue (2-amino-purine, 2AP) in place of U25 for HIV TAR, and by monitoring changes in the reporter emission fluorescence intensity at 362 nm upon small molecule titration. Each experiment was collected in duplicate with 50 nM 2AP-TAR titrated with 5 mL of ligand stock solutions prepared by serial dilution. Methods were followed with 250×fold excess yeast tRNA added to the buffer as a competitor to reduce non-specific binding. Data were collected on a Horiba FL3-21tau Fluorescence Spectrophotometer, exported to Graphpad Prism v.8.1.1 and fit to Equation 1.
where Y is the measured fluorescence at 362 nm, Yi is fluorescence of the fully bound target, Yo is the fluorescence of the unbound RNA, Rt is total RNA concentration, Lt is total ligand concentration and Kd is the binding affinity.

“cyclo(P(dab)VRTRKGRRI(NOR)Ip) (cyclo(P[Dab]VRTRKGRRI[Agb]I[dP])) [JB181]”: the “inhibition of Tat-dependent reactivation in cells” value in assay [1] is recorded as “only moderately inhibits”.

As for `CN(C)C(=O)c1cc2cnc(Nc3ccc(N4CCNCC4)cn3)nc2n1C1CCCC1` [Ribociclib], the “binding to HIV TAR by target-detected NMR (qualitative)” value in the assay with HIV TAR [2] is recorded as “high nM binding”. Also, the “single point binding response to pre-miR-21” value in the assay on pre-miR-21 is recorded as “binding responses”. The “single point binding response to HIV TAR” value in the assay with HIV TAR [3] is reported as “binding responses”. The Kd at HIV TAR [4] worked out at 215 ± 56 nM.
